Test results: patent US10258602B2 (Ocera Therapeutics, Inc., priority 2007, dated 2019)
Where two headings read alike, the source gives them in different places.

Legend:
[1] = biological target: GHS-R1a receptor (human ghrelin receptor) (Homo sapiens, UniProt Q92847); test: Aequorin functional assay (ghrelin receptor), standard method B; format: cell-based
Description: B. Aequorin Functional Assay (Ghrelin Receptor)
See also U.S. patent application Ser. Nos. 11/149,512 and 11/149,731. (LePoul, E.; et al. J. Biomol. Screen. 2002, 7, 57-65; Bednarek, M. A.; et al. J. Med. Chem. 2000, 43, 4370-4376; Palucki, B. L.; et al. Bioorg. Med. Chem. Lett. 2001, 11, 1955-1957.) Functional activity at the gherlin receptor for representative compounds of the present invention is presented in the Examples.

[2] = biological target: human growth hormone secretagogue receptor (hGHS-R1a) (Homo sapiens, UniProt Q92847); test: Competitive radioligand binding assay (ghrelin receptor), standard method A
rat plasma = test: Plasma protein binding, rat plasma; format: in vitro ADME
fasted rats = test: Gastric emptying in fasted rat model, standard method E; format: in vivo; details: average where repeated
Procedure: E. Gastric Emptying in Fasted Rat Model
To examine the effects of compounds of the invention in a model for gastroparesis, compounds were evaluated for possible effects on gastric emptying in fasted rats. This model is used to determine the potential of compounds of the invention to promote motility in fasted rats.
• 1. Overnight-fasted rats (male, Wistar, 200 g, n=5/group) were given a meal (2 mL) of methylcellulose (2%) by intragastric gavage. The meal was labeled with phenol red (0.05%). • 2. Test articles (dosed at various concentrations, typically 1, 3, 10, 30 mg/kg), vehicle and positive control (metoclopramide, a 5-HT ligand and prokinetic agent currently prescribed for the treatment of GI disorders, including gastroparesis) were administered by oral gavage immediately after the meal (time=0). • 3. […] Total phenol red remaining in the stomach was quantified by a colorimetric method at 560 nm. • 5. A 30% or more increase in gastric emptying (as compared to the vehicle control) was considered significant. • 6. One-way ANOVA, Dunnet's post-hoc statistical test was applied Results
The effects of representative compounds of the invention in the rat gastric emptying model described in standard method E are provided in the following table. In cases where an experiment was conducted multiple times, the average of the individual results is presented.

human plasma = test: Plasma protein binding, human plasma (equilibrium dialysis); format: in vitro ADME
Description: J. Plasma Protein Binding
The pharmacokinetic and pharmacodynamic properties of drugs are largely a function of the reversible binding of drugs to plasma or serum proteins such as albumin and α1-acid glycoprotein. In general, only unbound drug is available for diffusion or transport across cell membranes, and for interaction at the pharmacological target. On the other hand, drugs with low plasma protein binding generally have large volumes of distribution and rapid clearance since only unbound drug is available for glomerular filtration and, in some cases, hepatic clearance. Thus, the extent of plasma protein binding can influence efficacy, distribution and elimination. The ideal range for plasma protein binding is in the range of 87-98% for most drug products.
Protein binding studies were performed using human plasma. Briefly, 96-well microplates were used to incubate various concentrations of the test article for 60 min at 37° C. Bound and unbound fractions are separated by equilibrium dialysis, where the concentration remaining in the unbound fraction is quantified by LC-MS or LC-MS-MS analysis. […].
The table below presents protein binding data for representative compounds of the present invention in both human and rat plasma.

[3] = Pharmacokinetic analysis (oral bioavailability, elimination half-life) in the rat; format: in vivo; details: oral administration, 8 mg/kg dose, HPLC-MS
Description: D. Pharmacokinetic Analysis of Representative Compounds of the Invention
The pharmacokinetic behavior of compound of the invention can be ascertained by methods well known to those skilled in the art. (Wilkinson, G. R. “Pharmacokinetics: The Dynamics of Drug Absorption, Distribution, and Elimination” in Goodman & Gilman's The Pharmacological Basis of Therapeutics, Tenth Edition, Hardman, J. G.; Limbird, L. E., Eds., McGraw Hill, Columbus, Ohio, 2001, Chapter 1.) The following method was used to investigate the pharmacokinetic parameters (elimination half-life, total plasma clearance, etc.) for intravenous, subcutaneous and oral administration of compounds of the present invention. See also U.S. patent application Ser. No. 11/149,512 and Ser. No. 11/149,731 and Intl. Pat. Appl. No. PCT/US2007/017905.
The table below presents oral bioavailability and elimination half-life data in the rat for representative compounds of the present invention. The parameters were determined by HPLC-MS after oral administration of an 8 mg/kg dose of the compound, except for compound 822 where a 2 mg/kg dose was used.

[4] = functional activity at the human ghrelin receptor, standard method B (Aequorin)
[5] = binding activity at the human ghrelin receptor, standard method A

human growth hormone secretagogue receptor (hGHS-R1a), sequence (Q92847 whole entry): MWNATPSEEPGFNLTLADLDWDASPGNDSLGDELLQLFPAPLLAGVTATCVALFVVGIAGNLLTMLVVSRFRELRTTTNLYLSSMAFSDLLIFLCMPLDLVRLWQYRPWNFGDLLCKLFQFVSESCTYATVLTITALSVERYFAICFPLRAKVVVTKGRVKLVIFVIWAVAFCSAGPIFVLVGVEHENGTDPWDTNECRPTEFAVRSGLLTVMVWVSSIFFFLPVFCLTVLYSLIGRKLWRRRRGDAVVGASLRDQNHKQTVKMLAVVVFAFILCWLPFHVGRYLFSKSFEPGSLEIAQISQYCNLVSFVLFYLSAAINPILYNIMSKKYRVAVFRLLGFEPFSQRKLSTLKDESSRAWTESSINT
GHS-R1a receptor (human ghrelin receptor), sequence (Q92847 whole entry): as above

Row | SMILES | EC50 [1, 4] [nM] | Ki [2, 5] [nM] | Percent Increase in Gastric Emptying After Oral Administration (fasted rats; dose 3 mg/kg) [%] | Elimination Half-life (t1/2, rat, min) [3] [min] | Oral Bioavailability (rat, % F) [3] [% F] | further results
1 | C[C@@H]1CN[C@@H](C2CC2)C(=O)N(C)[C@H](C)C(=O)N[C@H](Cc2cccnc2)C(=O)NCCCc2ccccc2O1 [Compound 975] | > 400 | ≤ 100 | – | – | – | –
2 | C[C@@H]1CN[C@@H](C2CCCCC2)C(=O)N(C)[C@H](C)C(=O)N[C@H](Cc2ccc(F)cc2)C(=O)NCCCc2ccccc2O1 [Compound 982] | ≤ 50 | ≤ 1 | – | – | – | –
3 | C[C@@H]1C(=O)N[C@H](Cc2ccc(F)cc2)C(=O)NCCCc2cccc3c2O[C@H](CC3)CN[C@@H](C2CC2)C(=O)N1C [Compound 1009] | ≤ 50 | ≤ 1 | – | – | – | –
4 | CC1CNC(C2CC2)C(=O)N(C)C(C)C(=O)NC(CC(C)(C)C)C(=O)NCCCC2CCCCC2O1 (mixture of isomers) [Compound 833] | – | ≤ 10 | 6 | – | – | Rat Plasma Protein Binding (%) (rat plasma; test concentration 3 μg/mL): 94.0%; Human Plasma Protein Binding (%) (human plasma; test concentration 3 μg/mL): 77.4%
5 | CC(C)CC1NC(=O)C(C)N(C)C(=O)C(C2CC2)NC(C)C(C)Oc2ccccc2CCCNC1=O (centres unmarked) [Compound 819] | – | ≤ 10 | 21 | 116 | 12 | Rat Plasma Protein Binding (%) (rat plasma; test concentration 3 μg/mL): 98.2%; Percent Increase in Gastric Emptying After Oral Administration (fasted rats; dose 1 mg/kg): 9%; Percent Increase in Gastric Emptying After Oral Administration (fasted rats; dose 10 mg/kg): 18%; Human Plasma Protein Binding (%) (human plasma; test concentration 3 μg/mL): 95.2%
6 | CC1CNC(C2CCCCC2)C(=O)N(C)C(C)C(=O)NC(Cc2ccc(O)cc2)C(=O)NCCCC2CCCCC2O1 (mixture of isomers) [Compound 829] | – | ≤ 1 | 28 | 45 | 8 | Human Plasma Protein Binding (%) (human plasma; test concentration 3 μg/mL): 91.6%
7 | CC[C@H](C)[C@@H]1NC[C@@H](C)Oc2ccccc2CCCNC(=O)[C@@H](Cc2cccnc2)NC(=O)[C@@H](C)N(C)C1=O [Compound 976] | ≤ 400 | ≤ 100 | – | – | – | –
8 | C[C@@H]1CN[C@@H](C2CC2)C(=O)N(C)[C@H](C)C(=O)N[C@H]([C@H](C)c2ccc(F)cc2)C(=O)NCCCc2ccccc2O1 [Compound 1018] | ≤ 400 | ≤ 100 | – | – | – | –
9 | CC(C)C[C@H]1NC(=O)[C@@H](C)N(C)C(=O)[C@H](C2CCCCC2)NC[C@@H](C)Oc2cccnc2CCCNC1=O [Compound 1061] | ≤ 100 | ≤ 100 | – | 23 | 4 | –
10 | C[C@@H]1CNC(=O)[C@@H](Cc2ccc(F)cc2)NC(=O)[C@@H](C)N(C)C(=O)[C@H](C2CC2)NC[C@@H](C)Oc2ccccc2C1 [Compound 1033] | ≤ 100 | ≤ 100 | – | – | – | –
11 | CC(C)[C@@H](O)[C@H]1NC(=O)[C@@H](C)N(C)C(=O)[C@H](C2CC2)NC[C@@H](C)Oc2ccccc2CCCNC1=O [Compound 1058] | ≤ 100 | ≤ 100 | – | – | – | –
12 | CC1CNC(C2CC2)C(=O)N(C)C(C)C(=O)NC(Cc2ccc(O)c(F)c2)C(=O)NCCCC2CCCCC2O1 (mixture of isomers) [Compound 832] | – | ≤ 1 | 13 | – | – | Rat Plasma Protein Binding (%) (rat plasma; test concentration 3 μg/mL): 97.3%; Human Plasma Protein Binding (%) (human plasma; test concentration 3 μg/mL): 88.9%
13 | C[C@@H]1CN[C@@H](C2CCCCC2)C(=O)N(C)[C@H](C)C(=O)N[C@H](Cc2ccc(O)cc2)C(=O)NCCCc2ncccc2O1 [Compound 1062] | ≤ 50 | ≤ 10 | – | – | – | –
14 | C[C@@H]1CN[C@@H](C2CC2)C(=O)N(C)[C@H](C)C(=O)N[C@H](Cc2ccc(O)cc2)C(=O)N[C@@H](C)CCc2ccccc2O1 [Compound 808] | – | ≤ 100 | 37 | 238 | 18 | Rat Plasma Protein Binding (%) (rat plasma; test concentration 5 μg/mL): 89.2%; Percent Increase in Gastric Emptying After Oral Administration (fasted rats; dose 1 mg/kg): 18%; Percent Increase in Gastric Emptying After Oral Administration (fasted rats; dose 10 mg/kg): 40%; Human Plasma Protein Binding (%) (human plasma; test concentration 5 μg/mL): 99.9%
15 | CC1C(=O)NC(Cc2ccc(O)cc2)C(=O)NCCCC2CCCCC2OCCNC(C2CC2)C(=O)N1C (centres unmarked) [Compound 1118] | – | ≤ 10 | – | – | – | Rat Plasma Protein Binding (%) (rat plasma; test concentration 3 μg/mL): 95.5%; Human Plasma Protein Binding (%) (human plasma; test concentration 3 μg/mL): 92.8%
16 | CC(C)C[C@H]1NC(=O)[C@@H](C)N(C)C(=O)[C@H](C2CC2)NC[C@@H](C)Oc2ccccc2CCCNC1=O [Compound 968] | ≤ 400 | ≤ 100 | – | 103 | 26 | –
17 | CC(C)C[C@H]1NC(=O)[C@@H](C)N(C)C(=O)[C@H](C2CC2)NC[C@H]2CCc3cccc(c3O2)CCCNC1=O [Compound 802] | ≤ 100 | ≤ 100 | 11 | 160 | 26 | Rat Plasma Protein Binding (%) (rat plasma; test concentration 1 μg/mL): 99.8%; Percent Increase in Gastric Emptying After Oral Administration (fasted rats; dose 1 mg/kg): 12%; Percent Increase in Gastric Emptying After Oral Administration (fasted rats; dose 10 mg/kg): 26%; Human Plasma Protein Binding (%) (human plasma; test concentration 1 μg/mL): 93.4%
18 | C[C@@H]1CN[C@@H](C2CC2)C(=O)N(C)[C@H](C)C(=O)N[C@H](Cc2ccc(Cl)cc2)C(=O)NCCCc2ccc(F)cc2O1 [Compound 877] | – | – | – | – | 15 | half-life ([3]; plasma, read-out: Elimination Half-life (t1/2, rat, min)): 255 min; EC50 [1]: ≤ 50 nM; Ki [2]: ≤ 100 nM
19 | CC1CNC(C2CC2)C(=O)N(C)C(C)C(=O)NC(CC(C)(C)C)C(=O)NCCCc2ccccc2O1 (centres unmarked) [Compound 1043] | ≤ 100 | ≤ 100 | – | – | – | –
